The values below come from patent publication EP4772514A1, “MACROCYCLIC COMPOUNDS, PREPARATION METHOD THEREFOR, AND USE THEREOF” (Genfleet Therapeutics (Shanghai) Inc., priority 2023, dated 2025).

Experiment [1] has as its system p-ERK. Briefly: Cell p-ERK assay (HTRF, Advance ERK phospho-T202/Y204 kit) in NCI-H441 cells. Particulars: NCI-H441, human non-small cell lung cancer cell strain, KRAS G12V mutation, 3 h compound incubation. The class given is cell-based. On the procedure: AsPC-1 cells were purchased from ATCC, Cat. No. CRL-1682; NCI-H441 cells were purchased from ATCC, Cat. No. HTB-174; RPMI-1640 medium was purchased from Gibco, Cat. No. 11875-093; FBS was purchased from Gibco, Cat. No. 10099-141C; penicillin/streptomycin double-antibiotic solution (PS) was purchased from Gibco, Cat. No. 15140-122; trypsin (containing EDTA) was purchased from Gibco, Cat. No. 25200-072; DMSO was purchased from VWRAMRESCO, Cat. No. 0231-500ML; 96-well cell culture plates were purchased from Corning, Cat. No. 3599; white-bottomed, opaque 96-well plates were purchased from Cisbio, Cat. No. 66PL96025; Advance ERK phospho-T202/Y204 kit was purchased from Cisbio, Cat. No. 64AERPEH; cell counter was purchased from CHEMOMETEC, model: NC-200; microplate reader was purchased from PerkinElmer, model: EnVision.
AsPC-1, a human pancreatic cancer cell strain endogenously containing a KRAS^G12D mutation, was cultured in a complete medium containing RPMI-1640 + 10% FBS + 1% PS. NCI-H441, a human non-small cell lung cancer cell strain endogenously containing a KRAS^G12V mutation, was cultured in a complete medium containing RPMI-1640 + 10% FBS + 1% PS.
The cells were digested with trypsin (containing EDTA), collected in their corresponding complete media, and counted. The density of the cell suspensions was adjusted with their corresponding complete media, and AsPC-1 cells (10000 cells/well) or NCI-H441 cells (20000 cells/well) were seeded into a 96-well cell culture plate, with the volume of the medium in each well being 80 µL. The cell culture plate was incubated in an incubator at 37 °C with 5% CO2 overnight. A series of 3.16-fold gradient dilutions of a 1000× compound stock solution were prepared with DMSO, and then diluted 200-fold with the complete medium described above to give 5× compound stock solutions. On the day after cell seeding, 20 µL of the 5× compound stock solution was added to each cell culture well. As a result, the final concentration of the compound in the cell culture well became 1×, and the DMSO content in the well was 0.1%. In addition to the compound-treated wells described above, cell-containing DMSO control wells were also set. A complete medium containing 0.5% DMSO was added at 20 µL/well. After the mixture was well mixed, the culture plate was incubated in the incubator at 37 °C with 5% CO2 for another 3 h. The medium was then removed from the culture wells, and 50 µL of cell lysis buffer (from Advance ERK phospho-T202/Y204 kit) was added to each well. The mixture was well mixed, incubated for 30 min, and then transferred to a white-bottomed, opaque 96-well assay plate at 16 µL/well, and separately, 16 µL of cell lysis buffer was added to additional wells (serving as blank wells) in the assay plate. After the transfer was completed, 4 µL of p-ERK HTRF antibody mixture (from Advance ERK phospho-T202/Y204 kit) was added to each well of the assay plate, followed by a 4-hour incubation. The HTRF signal values (RLU) were then measured using a microplate reader, and the inhibition rate of the compound against p-ERK levels was calculated as follows: IR(%) = (RLUDMSO - RLUcompound)/(RLUDMSO - RLUblank) × 100%, where RLUDMSO is the average HTRF signal value from the DMSO control well samples, RLU is the average HTRF signal value from the blank well samples, and RLUcompound is the HTRF signal value from the compound-treated well samples. Using an XLfit software, the IR(%) values were plotted against the logarithm of the compound concentrations, and the dose-response curves were fitted using the four-parameter method to calculate the IC50 values.
Background: In TR-FRET formats the signal depends on donor and acceptor labels being close together.

In experiment [2] the test system is NCI-H441 cells. Kind of experiment: 3D cell proliferation assay (CellTiter Glo-3D) in NCI-H441 cells. Format: cell-based. The conditions noted are these: NCI-H441, human lung cancer cell strain, KRAS G12V mutation, 3D culture, 2% FBS, 5 days, read-out: H441 AP IC50. The source says: MIA PaCa-2 cells were purchased from ATCC, Cat. No. CRL-1420; AsPC-1 cells were purchased from ATCC, Cat. No. CRL-1682; NCI-H441 cells were purchased from ATCC, Cat. No. HTB-174; NCI-H1975 cells were purchased from ATCC, Cat. No. CRL-5908; DMEM medium was purchased from Gibco, Cat. No. 11995-065; RPMI-1640 medium was purchased from Gibco, Cat. No. 11875-093; FBS was purchased from Gibco, Cat. No. 10099-141C; penicillin/streptomycin double-antibiotic solution (PS) was purchased from Gibco, Cat. No. 15140-122; Horse serum was purchased from Gibco, Cat. No. 16050130; trypsin (containing EDTA) was purchased from Gibco, Cat. No. 25200-072; DMSO was purchased from VWRAMRESCO, Cat. No. 0231-500ML; 384-well cell culture plates were purchased from Corning, Cat. No. 3830; white-bottomed, opaque 384-well assay plates were purchased from Corning, Cat. No. 3570; CellTiter Glo-3D kit was purchased from Promega, Cat. No. G9683; cell counter was purchased from CHEMOMETEC, model: NC-200; microplate reader was purchased from PerkinElmer, model: EnVision.
MIA PaCa-2, a human pancreatic cancer cell strain endogenously containing a KRAS^G12Cmutation, was cultured in a complete medium containing DMEM + 10% FBS + 2.5% Horse serum + 1% PS. AsPC-1, a human pancreatic cancer cell strain endogenously containing a KRAS^G12D mutation, was cultured in a complete medium containing RPMI-1640 + 10% FBS + 1% PS. NCI-H441 cells, a human lung cancer cell strain endogenously containing a KRAS^G12V mutation, were cultured in a complete medium containing RPMI-1640 + 10% FBS + 1% PS. NCI-H1975, a KRAS wild-type human lung cancer cell strain whose cell proliferation […], was cultured in a complete medium containing RPMI-1640 + 10% FBS + 1% PS.
The cells were digested with trypsin (containing EDTA), collected in their respective low-serum complete media containing 2% FBS (for MIA Paca-2 cell culture: DMEM + 2% FBS + 0.5% Horse serum + 1% PS), and counted. After the cell density was adjusted as required, MIA PaCa-2 cells (200 cells/well), AsPC-1 cells (800 cells/well), NCI-H441 cells (800 cells/well), or NCI-H1975 cells (400 cells/well) were seeded into a 384-well cell culture plate, with the volume of the medium in each well being 45 µL. The cell culture plate was incubated in an incubator at 37 °C with 5% CO2 overnight. A series of 3.16-fold gradient dilutions of a 1000× compound stock solution were prepared with DMSO, and then diluted 100-fold with the complete medium containing 2% FBS described above to give 10× compound stock solutions. On the day after cell seeding, 5 µL of the 10× compound stock solution was added to each cell culture well. As a result, the final concentration of the compound in the cell culture well became 1×, and the DMSO content in the well was 0.1%. In addition to the compound-treated wells described above, cell-containing DMSO control wells (with 5 µL of the complete medium containing 1% DMSO added to each well) and cell-free medium control wells (containing 50 µL of the complete medium with 2% FBS) were also set. The culture plate was incubated in an incubator at 37 °C with 5% CO2 for another 5 days, and then 30 µL of CellTiter-Glo working solution was added to each well. The mixture was well mixed, incubated for 30 min, left to stand at room temperature for 30 min, and then transferred to a white-bottomed, opaque 384-well assay plate at 40 µL/well. The chemiluminescence values (RLU) were measured using a microplate reader, and the cell proliferation inhibition rate for each well was calculated: IR(%) = (RLUDMSO - RLUcompound)/(RLUDMSO - RLUblank) × 100%, where RLUDMSO is the average RLU signal value from the DMSO control well samples, RLUblank is the average RLU signal value from the medium control well samples, and RLUcompound is the RLU signal value from the compound-treated well samples. […]
In general terms: ATP-based viability assays read luminescence as a measure of living cells.

Broadly, the IC50 is the concentration at which inhibition is half-maximal.

Molecules are shown by their SMILES. Like-named read-outs stand apart in the source and are kept apart here.

Consider `CCn1nc2c(c1-c1cc(C#CCN3CCS(=O)(=O)CC3)cnc1C(C)OC)CC(C)(C)COC(=O)C1CCCN(N1)C(=O)C(NC(=O)C(C)Cc1ccnc(NC)c1)Cc1nc(cs1)C=C2` (single isomer, unassigned) [Compound Z52-2], for which the 50% inhibitory concentration (IC50) in experiment [1] was 32 nM; in experiment [2], 25 nM.

As to `CCn1nc2c(c1-c1cc(C#CCN3CCS(=O)(=O)CC3)cnc1[C@H](C)OC)CC(C)(C)COC(=O)[C@@H]1CCCN(N1)C(=O)[C@@H](NC(=O)[C@@H]1CCCN1Cc1ccccc1)Cc1nc(cs1)/C=C/2` (atropisomer, axis not shown; (Ra)) [Compound Z48, (2S)-1-benzyl-N-((4^2Z,8^3S,2E,6S)-(Ra)-1^5-(5-(3-(1,1-dioxothiomorpholine)-1-prop-1-yn-1-yl)-2-((S)-1-methoxyethyl)pyridin-3-yl)-1^1-ethyl-12,12-dimethyl-7,9-dioxo-8^1,8^2,8^3,8^4,8^5,8^6-hexahydro-1^1H-10-oxa-4(4,2)-thiazola-8(1,3)-pyridazina-1(3,4)-pyrrolacyclotridecaphan-2-en-6-yl)pyrrolidine-2-carboxamide], the IC50 in experiment [1] was determined as 78.6 nM; in experiment [2] (120 h), 123 nM.

As to `CCn1nc2c(c1-c1cc(C#CCN3CCS(=O)(=O)CC3)cnc1[C@H](C)OC)CC(C)(C)COC(=O)[C@@H]1CCCN(N1)C(=O)[C@@H](NC(=O)[C@H](C(C)C)N(C)c1ccc3ncn(C)c3c1)Cc1nc(cs1)/C=C/2` (atropisomer, axis not shown; (Ra)) [Compound Z115, (2S)-N-((4^2Z,8^3S,2E,6S)-1^5-(Ra)-(5-(3-(1,1-dioxidothiomorpholino)prop-1-yn-1-yl)-2-((S)-1-methoxyethyl)pyridin-3-yl)-1^1-ethyl-12,12-dimethyl-7,9-dioxo-8^1,8^2,8^3,8^4,8^5,8^6-hexahydro-1^1H-10-oxa-4(4,2)-thiazola-8(1,3)-pyridazina-1(3,4)-pyrazolocyclotridec-2-en-6-yl)-3-methyl-2-(methyl(1-methyl-1H-benzo[d]imidazol-6-yl)amino)butanamide], the half-maximal inhibitory concentration (IC50) in experiment [1] (Homo sapiens, NCI-H441, 3 h) came to 3.97 nM; in experiment [2] (Homo sapiens, NCI-H441, 120 h), 18.9 nM.

As to `CCn1nc2c(c1-c1cc(C#CCN3CCS(=O)(=O)CC3)cnc1C(C)OC)CC(C)(C)COC(=O)C1CCCN(N1)C(=O)C(NC(=O)C(C)Cc1ccnc(NC)c1)Cc1nc(cs1)C=C2` (single isomer, unassigned) [Compound Z52-1], the half-maximal inhibitory concentration (IC50) in experiment [1] (Homo sapiens, NCI-H441, 3 h) is 52.3 nM; in experiment [2], 76.5 nM.

With `CCn1nc2c(c1-c1cc(C#CCN3CCS(=O)(=O)CC3)cnc1[C@H](C)OC)CC(C)(C)COC(=O)[C@@H]1CCCN(N1)C(=O)[C@@H](NC(=O)[C@@H](NC)C(C)C)Cc1nc(cs1)/C=C/2` (atropisomer, axis not shown; (Ra)) [Compound Z56, (2S)-N-((4^2Z,8^3S,2E,6S)-1^5-(Ra)-(5-(3-(1,1-dioxidothiomorpholino)prop-1-yn-1-yl)-2-((S)-1-methoxyethyl)pyridin-3-yl)-1^1-ethyl-12,12-dimethyl-7,9-dioxo-8^1,8^2,8^3,8^4,8^5,8^6-hexahydro-1^1H-10-oxa-4(4,2)-thiazola-8(1,3)-pyridazina-1(3,4)-pyrrolacyclotridecaphan-2-en-6-yl)-3-methyl-2-(methylamino)butanamide], the half-maximal inhibitory concentration (IC50) in experiment [1] (Homo sapiens, NCI-H441, 3 h) is 126 nM; in experiment [2] (Homo sapiens, NCI-H441, 120 h) it was 196 nM.

Consider `CCn1nc2c(c1-c1cc(C#CCN3CCS(=O)(=O)CC3)cnc1[C@H](C)OC)CC(C)(C)COC(=O)[C@@H]1CCCN(N1)C(=O)[C@@H](NC(=O)[C@H](C(C)C)N1CCC(C)C1=O)Cc1nc(cs1)/C=C/2` (atropisomer, axis not shown; (Ra)) [Compound Z116, (2S)-N-((4^2Z,8^3S,2E,6S)-(Ra)-1^5-(5-(3-(1,1-dioxothiomorpholinyl)prop-1-yn-1-yl)-2-((S)-1-methoxyethyl)pyridin-3-yl)-1^1-ethyl-12,12-dimethyl-7,9-dioxo-8^1,8^2,8^1,8^4,8^5,8^6-hexahydro-1^1H-10-oxo-4 (4,2)-thiazola-8(1,3)-pyridazina-1(3,4)-pyrrolacyclotridecaphan-2-en-6-yl)-3-methyl-2-(3-methyl-2-oxopyrrolidin-1-yl)butanamide], for which the IC50 in experiment [1] (Homo sapiens, NCI-H441, 3 h) stood at 115 nM; in experiment [2] (Homo sapiens, NCI-H441, 120 h), 386 nM.
